Assay results taken from US12539292B2, “BRM targeting compounds and associated methods of use” (Arvinas Operations, Inc., priority 2018, dated 2026).
Like-named read-outs stand apart in the source and are kept apart here.

Target: T1, BRM (Homo sapiens, UniProt P51531)
T1 construct: In-Cell Western Screen of BRM Degradation in SW1573 Cells; endogenous in cells; host or cells: SW1573
Test: In-cell Western screen of BRM degradation in SW1573 cells (Dmax and DC50)
Format: cell-based
Outline: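 After adhering overnight, cells received compound for 18-20 hours. They were then washed in cold DPBS, fixed with 4% PFA for 20 min and permeabilized for 30 min. Blocking and fluorescent secondary staining followed before imaging.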

[1] = BRM degradation, SW1573 cells, read-out: DC50
[2] = BRM degradation, SW1573 cells, when tested at the top concentration of between 0.3 and 10 μM, read-out: Dmax (%) (% degraded)
[3] = BRM degradation, SW1573 cells, tested at the top concentration of between 0.3 and 10 μM, read-out: Dmax (%) (% degraded)
[4] = SW1573, % degraded, when tested at the top concentration of between 0.3 and 10 μM, read-out: BRM Dmax (%)
[5] = target protein degradation, read-out: BRM DC50
[6] = BRM degradation, SW1573 cells, Table 2D, read-out: *DC50

T1 sequence (P51531 whole entry): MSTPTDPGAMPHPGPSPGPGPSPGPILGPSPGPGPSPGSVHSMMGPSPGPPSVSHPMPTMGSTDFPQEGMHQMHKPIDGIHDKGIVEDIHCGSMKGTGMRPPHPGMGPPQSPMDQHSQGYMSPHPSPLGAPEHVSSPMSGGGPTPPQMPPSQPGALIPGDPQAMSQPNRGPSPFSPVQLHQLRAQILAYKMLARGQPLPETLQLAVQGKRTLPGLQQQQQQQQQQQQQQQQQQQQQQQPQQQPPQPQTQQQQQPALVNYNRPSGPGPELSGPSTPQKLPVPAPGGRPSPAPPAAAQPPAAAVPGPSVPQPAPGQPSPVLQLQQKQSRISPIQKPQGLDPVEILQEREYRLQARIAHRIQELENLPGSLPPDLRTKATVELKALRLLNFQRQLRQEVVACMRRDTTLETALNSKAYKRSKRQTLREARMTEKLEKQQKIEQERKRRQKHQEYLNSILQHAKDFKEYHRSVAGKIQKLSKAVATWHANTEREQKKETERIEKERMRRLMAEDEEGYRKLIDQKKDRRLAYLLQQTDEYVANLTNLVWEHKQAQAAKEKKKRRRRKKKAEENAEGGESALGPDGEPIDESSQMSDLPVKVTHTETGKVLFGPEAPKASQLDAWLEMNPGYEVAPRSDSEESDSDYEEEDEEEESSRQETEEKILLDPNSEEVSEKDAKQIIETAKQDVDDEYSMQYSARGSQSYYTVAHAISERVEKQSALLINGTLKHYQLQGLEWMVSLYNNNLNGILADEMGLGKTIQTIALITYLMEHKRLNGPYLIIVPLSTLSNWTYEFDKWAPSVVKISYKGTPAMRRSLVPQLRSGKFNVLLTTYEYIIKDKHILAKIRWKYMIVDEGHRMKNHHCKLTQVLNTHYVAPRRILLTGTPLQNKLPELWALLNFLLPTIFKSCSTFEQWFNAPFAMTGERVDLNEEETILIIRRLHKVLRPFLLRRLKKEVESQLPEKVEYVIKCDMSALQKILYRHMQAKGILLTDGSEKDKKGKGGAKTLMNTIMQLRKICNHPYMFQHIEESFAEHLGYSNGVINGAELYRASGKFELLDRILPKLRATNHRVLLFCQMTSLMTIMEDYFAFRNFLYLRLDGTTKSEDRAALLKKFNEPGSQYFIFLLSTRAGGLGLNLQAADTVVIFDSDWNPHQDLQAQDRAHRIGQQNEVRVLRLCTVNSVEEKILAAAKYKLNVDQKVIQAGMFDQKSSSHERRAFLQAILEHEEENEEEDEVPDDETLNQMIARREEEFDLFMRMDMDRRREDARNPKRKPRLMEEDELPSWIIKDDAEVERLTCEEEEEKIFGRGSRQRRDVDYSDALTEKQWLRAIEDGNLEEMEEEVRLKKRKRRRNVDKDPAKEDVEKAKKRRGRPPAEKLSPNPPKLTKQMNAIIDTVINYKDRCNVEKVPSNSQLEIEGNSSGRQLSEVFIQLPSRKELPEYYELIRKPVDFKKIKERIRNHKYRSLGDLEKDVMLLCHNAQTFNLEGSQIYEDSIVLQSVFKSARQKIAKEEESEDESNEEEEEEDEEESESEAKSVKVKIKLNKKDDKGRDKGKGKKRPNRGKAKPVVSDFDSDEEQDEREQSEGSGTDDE

Structure (SMILES) | DC50 [1] | Dmax [3] | further results
Cc1ncsc1-c1ccc(CNC(=O)[C@@H]2C[C@@H](O)CN2C(=O)[C@H](C(C)C)N2Cc3ccccc3C2=O)c(OCCOCCOCCOCCOCCn2cc(-c3cc(-c4ccccc4O)nnc3N)cn2)c1 [compound 13, (2S,4R)-N-(2-((14-(4-(3-amino-6-(2-hydroxyphenyl)pyridazin-4-yl)-1H-pyrazol-1-yl)-3,6,9,12-tetraoxatetradecyl)oxy)-4-(4-methylthiazol-5-yl)benzyl)-4-hydroxy-1-((S)-3-methyl-2-(1-oxoisoindolin-2-yl)butanoyl)pyrrolidine-2-carboxamide] | > 30 nM |  | Dmax [2]: > 75%
CC(C)[C@@H](C(=O)N1C[C@H](O)C[C@H]1C(=O)N[C@@H](C)c1ccc(C(F)(F)F)cc1)c1cc(OCCN2CCC(O[C@H]3C[C@H](Oc4cc(N5C6CCC5CN(c5cc(-c7ccccc7O)nnc5N)C6)ccn4)C3)CC2)no1 [compound 248, (2S,4R)-1-((2R)-2-(3-(2-(4-((1r,3R)-3-((4-(3-(3-amino-6-(2-hydroxyphenyl)pyridazin-4-yl)-3,8-diazabicyclo[3.2.1]octan-8-yl)pyridin-2-yl)oxy)cyclobutoxy)piperidin-1-yl)ethoxy)isoxazol-5-yl)-3-methylbutanoyl)-4-hydroxy-N-((S)-1-(4-(trifluoromethyl)phenyl)ethyl) pyrrolidine-2-carboxamide] | > 30 nM |  | 
Cc1ncsc1-c1ccc([C@H](C)NC(=O)[C@@H]2C[C@@H](O)CN2C(=O)[C@@H](c2cc(OCCN3CCN(CC#CCN4CCOC5(CCN(c6cc(-c7ccccc7O)nnc6N)CC5)C4)CC3)no2)C(C)C)cc1 [compound 188, (2S,4R)-1-((R)-2-(3-(2-(4-(4-(9-(3-amino-6-(2-hydroxyphenyl)pyridazin-4-yl)-1-oxa-4,9-diazaspiro[5.5]undecan-4-yl)but-2-yn-1-yl)piperazin-1-yl)ethoxy)isoxazol-5-yl)-3-methylbutanoyl)-4-hydroxy-N-((S)-1-(4-(4-methylthiazol-5-yl)phenyl)ethyl)pyrrolidine-2-carboxamide] | < 2.5 nM | > 75% | 
CC(C)[C@@H](C(=O)N1C[C@H](O)C[C@H]1C(=O)N[C@@H](C)c1ccc(-c2nncs2)cc1)c1cc(OCCN2CCC(O[C@H]3C[C@H](Oc4cc(N5C6CCC5CN(c5cc(-c7ccccc7O)nnc5N)C6)ccn4)C3)CC2)no1 [compound 364, (2S,4R)-N-((S)-1-(4-(1,3,4-thiadiazol-2-yl)phenyl)ethyl)-1-((2R)-2-(3-(2-(4-((1r,3R)-3-((4-(3-(3-amino-6-(2-hydroxyphenyl)pyridazin-4-yl)-3,8-diazabicyclo[3.2.1]octan-8-yl)pyridin-2-yl)oxy)cyclobutoxy)piperidin-1-yl)ethoxy)isoxazol-5-yl)-3-methylbutanoyl)-4-hydroxypyrrolidine-2-carboxamide] |  |  | Dmax [4]: > 75%; DC50 [5]: > 30 nM
Cc1ncsc1-c1ccc([C@@H](NC(=O)[C@@H]2C[C@@H](O)CN2C(=O)[C@@H](c2cc(OCCN3CCC(O[C@H]4C[C@H](Oc5cc(N6C7CCC6CN(c6cc(-c8ccccc8O)nnc6N)C7)ccn5)C4)CC3)no2)C(C)C)C(F)F)cn1 [compound 244, (2S,4R)-1-((2R)-2-(3-(2-(4-((1r,3R)-3-((4-(3-(3-amino-6-(2-hydroxyphenyl)pyridazin-4-yl)-3,8-diazabicyclo[3.2.1]octan-8-yl)pyridin-2-yl)oxy)cyclobutoxy)piperidin-1-yl)ethoxy)isoxazol-5-yl)-3-methylbutanoyl)-N-((R)-2,2-difluoro-1-(6-(4-methylthiazol-5-yl)pyridin-3-yl)ethyl)-4-hydroxypyrrolidine-2-carboxamide] | < 2.5 nM | > 75% | 
Cc1ncsc1-c1ccc([C@H](C)NC(=O)[C@@H]2C[C@@H](O)CN2C(=O)[C@@H](c2cc(N3CCC(CN4CCC([C@H](C)n5cc(-c6cc(-c7ccccc7O)nnc6N)cn5)CC4)CC3)no2)C(C)C)cc1 (single isomer, unassigned) [compound 573] |  |  | Dmax (BRM degradation, SW1573 cells, Table 2D, read-out: **Dmax (%) (% degraded)): > 75%; DC50 [6]: < 2.5 nM
Cc1ncsc1-c1ccc([C@H](C)NC(=O)[C@@H]2C[C@@H](O)CN2C(=O)[C@@H](c2cc(O[C@H]3C[C@H](CN4CCC(O[C@H]5C[C@H](Oc6cc(N7C8CCC7CN(c7cc(-c9ccccc9O)nnc7N)C8)ccn6)C5)CC4)C3)no2)C(C)C)cc1 [compound 242, (2S,4R)-1-((2R)-2-(3-((1R,3R)-3-((4-((1r,3R)-3-((4-(3-(3-amino-6-(2-hydroxyphenyl)pyridazin-4-yl)-3,8-diazabicyclo[3.2.1]octan-8-yl)pyridin-2-yl)oxy)cyclobutoxy)piperidin-1-yl)methyl)cyclobutoxy)isoxazol-5-yl)-3-methylbutanoyl)-4-hydroxy-N-((S)-1-(4-(4-methylthiazol-5-yl)phenyl)ethyl)pyrrolidine-2-carboxamide] | < 2.5 nM | > 75% | 
Cc1ncsc1-c1ccc(CNC(=O)[C@@H]2C[C@@H](O)CN2C(=O)[C@@H](NC(=O)COCCOCCn2cc(-c3cc(-c4ccccc4O)nnc3N)cn2)C(C)(C)C)cc1 [compound 11, (2S,4R)-1-((S)-2-(2-(2-(2-(4-(3-amino-6-(2-hydroxyphenyl)pyridazin-4-yl)-1H-pyrazol-1-yl)ethoxy)ethoxy)acetamido)-3,3-dimethylbutanoyl)-4-hydroxy-N-(4-(4-methylthiazol-5-yl)benzyl)pyrrolidine-2-carboxamide] | > 30 nM |  | Dmax [2]: > 75%
Cc1ncsc1-c1ccc([C@H](C)NC(=O)[C@@H]2C[C@@H](O)CN2C(=O)[C@@H](c2cc(OCCN3CCC(O[C@H]4C[C@H](Oc5cc(N6C7CCC6CN(c6cc(-c8ccccc8O)nnc6N)C7)ccn5)C4)CC3)no2)C(C)C)cn1 [compound 180, (2S,4R)-1-((2R)-2-(3-(2-(4-((1r,3R)-3-((4-(3-(3-amino-6-(2-hydroxyphenyl)pyridazin-4-yl)-3,8-diazabicyclo[3.2.1]octan-8-yl)pyridin-2-yl)oxy)cyclobutoxy)piperidin-1-yl)ethoxy)isoxazol-5-yl)-3-methylbutanoyl)-4-hydroxy-N-((S)-1-(6-(4-methylthiazol-5-yl)pyridin-3-yl)ethyl)pyrrolidine-2-carboxamide] | < 2.5 nM | > 75% | 
Cc1nccn1-c1ccc([C@H](C)NC(=O)[C@@H]2C[C@@H](O)CN2C(=O)[C@H](c2cc(N3CCC(O[C@H]4C[C@H](Oc5cc(N6C7CCC6CN(c6cc(-c8ccccc8O)nnc6N)C7)ccn5)C4)CC3)no2)C(C)C)cc1 [compound 600, (2S,4R)-1-((2S)-2-(3-(4-((1r,3S)-3-((4-(3-(3-amino-6-(2-hydroxyphenyl)pyridazin-4-yl)-3,8-diazabicyclo[3.2.1]octan-8-yl)pyridin-2-yl)oxy)cyclobutoxy)piperidin-1-yl)isoxazol-5-yl)-3-methylbutanoyl)-4-hydroxy-N-((S)-1-(4-(2-methyl-1H-imidazol-1-yl)phenyl)ethyl)pyrrolidine-2-carboxamide] |  |  | DC50 [6]: > 30 nM
Cc1ncsc1-c1ccc([C@H](C)NC(=O)[C@@H]2C[C@@H](O)CN2C(=O)[C@H](c2cc(N3CCC4(CCN(C[C@H]5C[C@H](Oc6cc(N7C8CCC7CN(c7cc(-c9ccccc9O)nnc7N)C8)ccn6)C5)CC4)CC3)no2)C(C)C)cc1 [compound 647, (2S,4R)-1-((2S)-2-(3-(9-(((1r,3S)-3-((4-(3-(3-amino-6-(2-hydroxyphenyl)pyridazin-4-yl)-3,8-diazabicyclo[3.2.1]octan-8-yl)pyridin-2-yl)oxy)cyclobutyl)methyl)-3,9-diazaspiro[5.5]undecan-3-yl)isoxazol-5-yl)-3-methylbutanoyl)-4-hydroxy-N-((S)-1-(4-(4-methylthiazol-5-yl)phenyl)ethyl)pyrrolidine-2-carboxamide] | > 30 nM |  | 
Cc1ncsc1-c1ccc([C@H](C)NC(=O)[C@@H]2C[C@@H](O)CN2C(=O)[C@@H](c2cc(OC[C@@H]3C[C@H]3c3ccc(O[C@H]4C[C@H](Oc5cc(N6C7CCC6CN(c6cc(-c8ccccc8O)nnc6N)C7)ccn5)C4)cn3)no2)C(C)C)cn1 [compound 480, (2S,4R)-1-((2R)-2-(3-(((1R,2R)-2-(5-((1r,3R)-3-((4-(3-(3-amino-6-(2-hydroxyphenyl)pyridazin-4-yl)-3,8-diazabicyclo[3.2.1]octan-8-yl)pyridin-2-yl)oxy)cyclobutoxy)pyridin-2-yl)cyclopropyl)methoxy)isoxazol-5-yl)-3-methylbutanoyl)-4-hydroxy-N-((S)-1-(6-(4-methylthiazol-5-yl)pyridin-3-yl)ethyl)pyrrolidine-2-carboxamide] |  |  | Dmax [4]: > 75%; DC50 [5]: < 2.5 nM
Cc1ncsc1-c1c(F)cc([C@H](C)NC(=O)[C@@H]2C[C@@H](O)CN2C(=O)[C@@H](c2cc(N3CCC(CN4CCC(O[C@H]5C[C@H](Oc6cc(N7C8CCC7CN(c7cc(-c9ccccc9O)nnc7N)C8)ccn6)C5)CC4)CC3)no2)C(C)C)cc1F [compound 666, (2S,4R)-1-((2R)-2-(3-(4-((4-((1r,3r)-3-((4-(3-(3-amino-6-(2-hydroxyphenyl)pyridazin-4-yl)-3,8-diazabicyclo[3.2.1]octan-8-yl)pyridin-2-yl)oxy)cyclobutoxy)piperidin-1-yl)methyl)piperidin-1-yl)isoxazol-5-y1)-3-methylbutanoyl)-N-((S)-1-(3,5-difluoro-4-(4-methylthiazol-5-yl)phenyl)ethyl)-4-hydroxypyrrolidine-2-carboxamide] | < 2.5 nM |  | Dmax (BRM degradation, SW1573 cells, read-out: Dmax (% degraded)): > 75%
